Laboratory results from patent US20130023585A1, “Neuraminidase Inhibitors” (TSRL, INC., priority 2010, published 2013).

Test system: Hong Kong/2369/2009 (H1N1) H275Y oseltamivir resistant
Type: cell-based, influenza virus

Structure (SMILES): CCC(CC)O[C@@H]1C=C(C(=O)O)C[C@H](NC(=N)N)[C@H]1NC(C)=O [GOC, 4-guanidinio oseltamivir carboxylate]
- activity against the Oseltamivir resistant strain: remains active
- EC50 (read-out: 50% effective concentration (EC50)): 1700 nM
